Measurements as given in paper PMC3395220 (Journal of Medicinal Chemistry, 2012).
Like-named read-outs stand apart in the source and are kept apart here.

Legend:
NCI-H460 = assay type: cell-based, human; settings: 10^Δ2-x, relative to compound 2
HCT-116 = assay type: cell-based, human; settings: 10^Δ2-x, relative to compound 2
SK-OV-3 = assay type: cell-based, human; settings: 10^Δ2-x, relative to compound 2
OVCAR-4 = assay type: cell-based, human; settings: 10^Δ2-x, relative to compound 2
SF-295 = assay type: cell-based, human; settings: 10^Δ2-x, relative to compound 2
[1] = system: EWS-FLI1 transcription factor; settings: compared to 1, as opposed to a non-specific promoter; cited from earlier work
KM12 = assay type: cell-based, human; settings: 10^Δ2-x, relative to compound 2
HOP-62 = assay type: cell-based, human; settings: 10^Δ2-x, relative to compound 2
HCT-15 = assay type: cell-based, human; settings: 10^Δ2-x, relative to compound 2
COLO 205 = assay type: cell-based, human; settings: 10^Δ2-x, relative to compound 2
[2] = system: COLO-205 colon cancer cells; assay: Subcutaneous COLO-205 colon xenograft; assay type: in vivo, athymic nu/nu mice; settings: iv q2dx10 at 10 mg/Kg and q3dx10 at 20 mg/Kg
T-47D = assay type: cell-based, human; settings: 10^Δ2-x, relative to compound 2
DU-145 = assay type: cell-based, human; settings: 10^Δ2-x, relative to compound 2
SNB-19 = assay type: cell-based, human; settings: 10^Δ2-x, relative to compound 2
HL-60(TB) = assay type: cell-based, human; settings: 10^Δ2-x, relative to compound 2
HS578T = assay type: cell-based, human; settings: 10^Δ2-x, relative to compound 2
HCC-2998 = assay type: cell-based, human; settings: 10^Δ2-x, relative to compound 2
[3] = system: panel of 12 tumor cell lines implanted in mice; assay: NCI hollow fiber assay; assay type: in vivo
60 cancer cell lines = assay: cells; assay type: cell-based, human; settings: for GI50: Homo sapiens
BT-549 = assay type: cell-based, human; settings: 10^Δ2-x, relative to compound 2
OVCAR-3 = assay type: cell-based, human; settings: 10^Δ2-x, relative to compound 2
[4] = Assays of toxicity, maximum tolerated dose; settings: in vivo
SF-539 = assay type: cell-based, human; settings: 10^Δ2-x, relative to compound 2
CCRF-CEM = assay type: cell-based, human; settings: 10^Δ2-x, relative to compound 2
RPMI-8226 = assay type: cell-based, human; settings: 10^Δ2-x, relative to compound 2
NCI-H522 = assay type: cell-based, human; settings: 10^Δ2-x, relative to compound 2
HOP-92 = assay type: cell-based, human; settings: 10^Δ2-x, relative to compound 2
NCI-H23 = assay type: cell-based, human; settings: 10^Δ2-x, relative to compound 2
MOLT-4 = assay type: cell-based, human; settings: 10^Δ2-x, relative to compound 2
K-562 = assay type: cell-based, human; settings: 10^Δ2-x, relative to compound 2
UACC-257 = assay type: cell-based, human; settings: 10^Δ2-x, relative to compound 2
CAKI-1 = assay type: cell-based, human; settings: 10^Δ2-x, relative to compound 2
SK-MEL28 = assay type: cell-based, human; settings: 10^Δ2-x, relative to compound 2
LOX IMVI = assay type: cell-based, human; settings: 10^Δ2-x, relative to compound 2
MDA-MB-435 = assay type: cell-based, human; settings: 10^Δ2-x, relative to compound 2
UACC-62 = assay type: cell-based, human; settings: 10^Δ2-x, relative to compound 2
RXF 393 = assay type: cell-based, human; settings: 10^Δ2-x, relative to compound 2
Plasma pharmacokinetics = assay type: in vivo, CD-1 mice; settings: mice, iv 18 mg/kg
NCI/ADR-RES = assay: cells; assay type: cell-based, human
NCI-H226 = assay type: cell-based, human; settings: 10^Δ2-x, relative to compound 2
PC-3 = assay type: cell-based, human; settings: 10^Δ2-x, relative to compound 2
A498 = assay type: cell-based, human; settings: 10^Δ2-x, relative to compound 2
MCF7 = assay type: cell-based, human; settings: 10^Δ2-x, relative to compound 2
SR = assay type: cell-based, human; settings: 10^Δ2-x, relative to compound 2
SK-MEL-2 melanoma cells = assay: Subcutaneous SK-MEL-2 melanoma xenograft; assay type: in vivo, athymic nu/nu mice; settings: iv q2dx10 at 10 mg/Kg and q3dx10 at 20 mg/Kg
A549/ATCCC = assay type: cell-based, human; settings: 10^Δ2-x, relative to compound 2
OVCAR-8 = assay type: cell-based, human; settings: 10^Δ2-x, relative to compound 2
EKVX = assay type: cell-based, human; settings: 10^Δ2-x, relative to compound 2
IGROV1 = assay type: cell-based, human; settings: 10^Δ2-x, relative to compound 2
SNB-75 = assay type: cell-based, human; settings: 10^Δ2-x, relative to compound 2
HT29 = assay type: cell-based, human; settings: 10^Δ2-x, relative to compound 2
SF-268 = assay type: cell-based, human; settings: 10^Δ2-x, relative to compound 2

In the case of `CO[C@@H]([C@@H]1Cc2cc3cc(O[C@H]4C[C@@H](O[C@H]5C[C@@H](O)[C@H](O)[C@@H](C)O5)[C@H](O)[C@@H](C)O4)c(C)c(O)c3c(O)c2C(=O)[C@H]1O[C@H]1C[C@@H](O[C@H]2C[C@@H](O[C@H]3C[C@H](O)[C@H](O)[C@@H](C)O3)[C@H](O)[C@@H](C)O2)[C@H](O)[C@@H](C)O1)[C@@H](O)C(C)=O` [Compound 9, demycarosyl-3D-β-D-digitoxosyl-mithramycin SK], the activity improvement factor (NCI-H460) is reported as 1.19, the activity improvement factor (HCT-116) is reported as 1.17 and the activity improvement factor (SK-OV-3) is reported as 3.85. The activity improvement factor (OVCAR-4) was 3.76, the activity improvement factor (SF-295) was 2.00 and the “inhibition of luciferase activity driven by NRB01” value [1] was “inhibits more effectively”. It also gave an activity improvement factor (KM12) of 1.66, an activity improvement factor (HOP-62) of 2.26 and an activity improvement factor (HCT-15) of 1.00. The activity improvement factor (COLO 205) was 2.26, the “tumor growth of COLO-205 colon xenografts” value [2] was “reduced notably” and the activity improvement factor (T-47D) was 1.74. For the same molecule, the activity improvement factor (DU-145) was 4.47, the activity improvement factor (SNB-19) was 1.55 and the activity improvement factor (HL-60(TB)) was 2.24. The activity improvement factor (HS578T) was 1.76, the activity improvement factor (HCC-2998) was 3.76 and the “hollow fiber assay total score” value ([3]; 12 tumor cell lines, daily ip for four days) was 66/96. The “hollow fiber assay intraperitoneal score” value ([3]; intraperitoneal implants) was 36/48, the “hollow fiber assay subcutaneous score” value ([3]; subcutaneous implants) was 30/48 and the GI50 (60 cancer cell lines; read-out: Mean GI50) was 30 nM. The GI50 (60 cancer cell lines; read-out: Mean log(GI50) (converted)) was 30.2 nM, the “fold more active than 10, in average” value (60 cancer cell lines; NCI-60 GI50) was “about 5 fold” and the activity improvement factor (BT-549) was 0.94. The activity improvement factor (OVCAR-3) was 3.51, the “fold less toxicity than parental compound 1, single treatment” value [4] was “about 32 fold” and the activity improvement factor (SF-539) was 1.30. It also gave an activity improvement factor (CCRF-CEM) of 1.14, an activity improvement factor (RPMI-8226) of 0.73 and an activity improvement factor (NCI-H522) of 0.79. For the same molecule, the activity improvement factor (HOP-92) was 1.11, the activity improvement factor (NCI-H23) was 1.86 and the activity improvement factor (MOLT-4) was 2.43. For the same molecule, the activity improvement factor (K-562) was 1.40, the activity improvement factor (UACC-257) was 1.66 and the activity improvement factor (CAKI-1) was 1.64. It also gave an activity improvement factor (SK-MEL28) of 1.46, an activity improvement factor (LOX IMVI) of 1.23 and an activity improvement factor (MDA-MB-435) of 1.82. For the same molecule, the activity improvement factor (UACC-62) was 1.02, the activity improvement factor (RXF 393) was 0.86 and the plasma level (Plasma pharmacokinetics; after 30 min) was ~1,7 μM. For the same molecule, the plasma level (Plasma pharmacokinetics; after 120 min) was “below 0,1 μM”, the activity improvement factor (NCI/ADR-RES; 10^Δ2-x, relative to compound 2) was 0.15 and the GI50 (NCI/ADR-RES; Homo sapiens) was greater than 10000 nM. The activity improvement factor (NCI-H226) was 2.26, the activity improvement factor (PC-3) was 4.62 and the activity improvement factor (A498) was 2.24. The activity improvement factor (MCF7) was 0.92, the activity improvement factor (SR) was 1.11 and the “growth of SK-MEL-2 human melanoma xenografts” value (SK-MEL-2 melanoma cells) was “markedly delayed”. The activity improvement factor (A549/ATCCC) was 2.04, the activity improvement factor (OVCAR-8) was 1.51 and the activity improvement factor (EKVX) was 1.60. For the same molecule, the activity improvement factor (IGROV1) was 7.16, the activity improvement factor (SNB-75) was 0.93 and the activity improvement factor (HT29) was 3.55. The activity improvement factor (SF-268) was 1.40.
